The source of these data is US20220257725A1, “COMPOSITIONS AND METHODS FOR TREATING PEROXISOMAL BIOGENESIS DISORDERS” (University of Utah Research Foundation, priority 2019, published 2022).

B1: yeast Pex11 (other, yeast (S. cerevisiae), UniProt Q12462 2-236, looked up)
chain: VCDTLVYHPSVTRFVKFLDGSAGREKVLRLLQYLARFLAVQNSSLLARQLQAQFTTVRKFLRFLKPLNHLQAAAKFYDNKLASDNVVRVCNVLKNIFFAAYLSLDQVNLLRILKVIPVTVLTGKKIPRWSNWCWLFGLLSGLAMDLRKIQTSHAQIAAFVKAKSQSQGDEHEDHKKVLGKAYQDRYTALRRLFWDAADSFIVLNNLGYLSSNEEYVALSGVVTSILGMQDMWKAT
B2: yeast Pex14 (other, yeast (S. cerevisiae), UniProt P53112 2-341, looked up)
chain: SDVVSKDRKALFDSAVSFLKDESIKDAPLLKKIEFLKSKGLTEKEIEIAMKEPKKDGIVGDEVSKKIGSTENRASQDMYLYEAMPPTLPHRDWKDYFVMATATAGLLYGAYEVTRRYVIPNILPEAKSKLEGDKKEIDDQFSKIDTVLNAIEAEQAEFRKKESETLKELSDTIAELKQALVQTTRSREKIEDEFRIVKLEVVNMQNTIDKFVSDNDGMQELNNIQKEMESLKSLMNNRMESGNAQDNRLFSISPNGIPGIDTIPSASEILAKMGMQEESDKEKENGSDANKDDNAVPAWKKAREQTIDSNASIPEWQKNTAANEISVPDWQNGQVEDSIP
B3: yeast Pex13-V5 (expressed by its endogenous promotor) (other, yeast (S. cerevisiae), UniProt P80667 1-386, looked up)
chain: MSSTAVPRPKPWETSASLEEPQRNAQSLSAMMTSNQQDSRPTEESNNSNSASESAPEVLPRPAALNSSGTYGESNTIPGIYGNSNYGIPYDNNPYSMNSIYGNSIGRYGYGGSYYGNNYGSFYGGGYGAGAGYGMNNGSGLGESTKATFQLIESLIGAVTGFAQMLESTYMATHNSFFTMISVAEQFGNLKEMLGSFFGIFAIMKFLKKILYRATKGRLGIPPKNFAESEGSKNKLIEDFQKFNDSGTINSNEKATRRKISWKPLLFFLMAVFGFPYLLNKFITKLQTSGTIRASQGNGSEPIDPSKLEFARALYDFVPENPEMEVALKKGDLMAILSKKDPLGRDSDWWKVRTKNGNIGYIPYNYIEIIKRRKKIEHVDDETRTH
notes: not shown: V5 tag

The test system of assay [1] is PEX3 deficient (PEX3−) fibroblast cell line derived from a patient with Zellweger Syndrome. The assay is described as follows: Live cell fluorescent imaging of peroxin-GFP localization with ATAD1 overexpression. It counts as cell-based, human.
Assay [2] has as its system PEX3− patient fibroblasts. The assay is described as follows: Unbiased whole cell lipidomics. The assay is classed as cell-based, human. The following applies: patient cell line with overexpression of ATAD1. Here is the method: (§1) Representative images of the most observed mitochondrial morphology are shown. […] OCR (pmol/min/norm.unit) for cWT (wild-type), cWT+ATAD1 (wild-type expressing ATAD1) PEX3− (patient), PEX3−+ATAD1 (PEX3− expressing ATAD1), cWT-ATAD1 (wildtype with ATAD1 deletion), PEX3−ATAD1 (patient with ATAD1 deletion) cells plotted against time (XF96e Extracellular Flux Analyzer, Mito-Stress-Test.) Oligomycin A (1 μM), 0.15 μM FCCP and 1 μM rotenone+1 μM antimycin A (final concentrations) were sequentially delivered to the XF96e assay medium through injection ports in the sensor cartridge. n=2 (4+4=8 technical replicates). […] Statistical significance (Welch's test), p values are indicated as: ns (not significant), * p≤0.05, ** p≤0.01, *** p≤0.001, **** p≤0.0001. […] Statistical significance (Welch's test), p values are indicated as: ns (not significant), * p≤0.05, ** p≤0.01, *** p≤0.001, **** p≤0.0001. FIG. 5E show a bar graph representation of calculated respiratory spare capacity (=uncoupled respiration minus basal respiration) of cWT (wild-type), cWT+ATAD1 (wild-type expressing ATAD1) PEX3− (patient), PEX3−+ATAD1 (PEX3− expressing ATAD1), cWT-ATAD1 (wildtype with ATAD1 deletion), PEX3−ATAD1 (patient with ATAD1 deletion). Statistical significance (Welch's test), p values are indicated as: ns (not significant), * p≤0.05, ** p≤0.01, *** p≤0.001, **** p≤0.0001.
To complement the characterization with other readouts relevant to reflect important mitochondrial function, unbiased whole cell lipidomics was performed. […] Another readout of flourishing mitochondrial metabolism is the capacity of mitochondria to import […] phosphatidylserines (PSs) into phosphatidylethanolamines (PEs). […] The class of phospho-ether lipids (plasmalogens), precursors to myelin, seems to be unaffected (FIG. 5H).

Assay [3] concerns PEX3− patient fibroblasts. Put plainly: Seahorse XF 96e Flux analyzer respiration (Mito-Stress-Test). It counts as cell-based, human. As for the experimental part: as §1
Therefore, it was tested whether removal of the accumulated peroxins is able to restore mitochondrial respiration. To test the direct dependence of this phenotype with the expression levels of ATAD1, additional cell lines with genetic deletion of ATAD1 was generated. A Seahorse XF 96e Flux analyzer was used to measure respiration (FIG. 5B). A significant lower basal rate of respiration in the PEX3^− cell line was observed compared to the complemented wild-type cWT (FIGS. 5B, 5C). […] In the case that the expression level of ATAD1 is sufficient to cause the phenotype, it would be expected that a much more severe phenotype in the patient with an additional ATAD1 deletion. […]

Assay [4] concerns PEX3− patient fibroblasts. The assay is described as follows: Electron microscopy of mitochondrial morphology. The assay is classed as cell-based, human. As for the experimental part: Representative images of the most observed mitochondrial morphology are shown. […] OCR (pmol/min/norm.unit) for cWT (wild-type), cWT+ATAD1 (wild-type expressing ATAD1) PEX3− (patient), PEX3−+ATAD1 (PEX3− expressing ATAD1), cWT-ATAD1 (wildtype with ATAD1 deletion), PEX3−ATAD1 (patient with ATAD1 deletion) cells plotted against time (XF96e Extracellular Flux Analyzer, Mito-Stress-Test.) Oligomycin A (1 μM), 0.15 μM FCCP and 1 μM rotenone+1 μM antimycin A (final concentrations) were sequentially delivered to the XF96e assay medium through injection ports in the sensor cartridge. n=2 (4+4=8 technical replicates). […] Statistical significance (Welch's test), p values are indicated as: ns (not significant), * p≤0.05, ** p≤0.01, *** p≤0.001, **** p≤0.0001. […] Statistical significance (Welch's test), p values are indicated as: ns (not significant), * p≤0.05, ** p≤0.01, *** p≤0.001, **** p≤0.0001. FIG. 5E show a bar graph representation of calculated respiratory spare capacity (=uncoupled respiration minus basal respiration) of cWT (wild-type), cWT+ATAD1 (wild-type expressing ATAD1) PEX3− (patient), PEX3−+ATAD1 (PEX3− expressing ATAD1), cWT-ATAD1 (wildtype with ATAD1 deletion), PEX3−ATAD1 (patient with ATAD1 deletion). Statistical significance (Welch's test), p values are indicated as: ns (not significant), * p≤0.05, ** p≤0.01, *** p≤0.001, **** p≤0.0001. […]

Assay [5] deals with B3. Put plainly: BN-PAGE of digitonin-solubilised yeast mitochondrial membranes with complexome profiling (co-migration in a 150-180 kDa subcomplex).
Assay [6] deals with B3. The assay is described as follows: BN-PAGE of digitonin-solubilised yeast mitochondrial membranes with complexome profiling (co-migration). Here is the method: Gel was transferred to PVDF membrane and immunoblotted for PEX13^V5 (V5). […] Left panel represents the protein abundance in the wild-type, middle panel in pex19Δ and the right panel in pex19Δmsp1Δ.
Some peroxisomal matrix proteins were detected that have never been reported to be localized to the mitochondria before (FIG. 2 and FIG. 3A (summary cartoon)). Therefore, it was tested whether the enrichment of peroxins on mitochondria is a random accumulation or a structured event.

Assay [7] concerns the target T1, yeast Pex25 (yeast (S. cerevisiae), UniProt Q02969 1-394).
T1 sequence (looked up): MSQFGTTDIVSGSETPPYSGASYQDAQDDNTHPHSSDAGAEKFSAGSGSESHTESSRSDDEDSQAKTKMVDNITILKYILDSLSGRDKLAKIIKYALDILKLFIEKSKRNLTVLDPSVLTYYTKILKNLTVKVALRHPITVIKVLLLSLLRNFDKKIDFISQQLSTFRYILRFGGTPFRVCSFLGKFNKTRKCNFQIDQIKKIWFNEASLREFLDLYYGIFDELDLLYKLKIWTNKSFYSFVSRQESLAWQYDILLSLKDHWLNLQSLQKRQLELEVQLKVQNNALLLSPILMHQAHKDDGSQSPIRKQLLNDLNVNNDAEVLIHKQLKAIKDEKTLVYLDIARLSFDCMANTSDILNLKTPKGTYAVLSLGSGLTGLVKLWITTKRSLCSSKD
The assay is described as follows: BN-PAGE of digitonin-solubilised yeast mitochondrial membranes with complexome profiling (co-migration in a 150-180 kDa subcomplex).

Turning to “ATAD1: human AAA-ATPase acting in mitochondrial protein quality control; overexpressed in patient fibroblasts”, the PEX13-GFP localization entry in assay [1] (PEX3−ATAD+ cells (ATAD1 overexpressed), Mitotracker far red counterstain) is given as “not stabilized in the mitochondrial outer membrane”. The PEX12-GFP distribution result in assay [1] (PEX12-GFP transiently expressed, ATAD1 overexpressing patient cell line, compared with PEX13-GFP result) is “very similar distribution with a slightly milder effect”. For the same molecule, in assay [2], the Cardiolipin levels entry is recorded as “normalizes to wild-type levels”, the “Phosphatidylethanolamine (PE) levels” value was “slightly higher values than in wild-type” and the “Phospho-ether lipids (plasmalogens)” value is on record as “unaffected”. Further, in assay [3] (PEX3−ATAD+), the “Mitochondrial spare capacity (uncoupled minus basal respiration)” value is on record as “recovered the mitochondrial spare capacity”. The Uncoupled respiration result in assay [3] (PEX3−ATAD+ versus cWT, FCCP 0.15 μM) is recorded as “normalized to wild-type respiration”. Besides, the Basal mitochondrial respiration entry in assay [3] (PEX3−ATAD+ versus cWT, OCR) is “restored back to wild-type level”. For the same molecule, the “Share accounted as type 3 (mitochondria with fewer cristae)” value in assay [4] (PEX3−ATAD+ cells, patient >80% type 2, wild-type about 80% types 1 and 3) is “about 70%”. Also, the “Mitochondrial morphology (electron density, cristae)” value in assay [4] (patient cell line overexpressing ATAD1, electron microscopy) is “electron density recovers and cristae formation is partially detected”.
As to B1, the binding result in assay [5] is given as “binds”.
Turning to B2, the binding result in assay [6] is “binds”.
In the case of B3, the binding result in assay [7] is given as “binds”.
